This passage reports solubility results from patent EP2706118A1, “Method for the production of primary amines” (BASF SE, priority 2012, dated 2014).

A short description of the data set: Solubility in the aqueous reaction mixture (remark in reaction conditions). Type of data set: physicochemical. As to conditions: ~10 mM in 20 mM bicine-buffer (pH 8.8), used an emulsion. Here is the method: • ~10 mM BDG-Aldehyde (very low solubility, used an emulsion) • 10 mM L-alanine • 20 mM bicine-buffer (pH 8.8) • Cv ω-TA (0.75 mg) • Total volume: 1 ml • c) The conversion of BDG-alcohol to BDG-amine by ADH + ω-TAs was confirmed by LC-MS (Figure 3 C) and thin layer chromatography (Figure 4, lanes 1-3).

As to `CCCCOCCOCC=O` [BDG-Aldehyde], the solubility entry is recorded as “very low”.
